Columns and labels:
Assay in all cases: relative viability (nuclei count vs DMSO), 5 days (fraction); higher = more cells survive
[1] = test system: A549
In short: (§1)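 Medians of duplicate plates are given as relative viability. That measure is the nuclei count in treated wells divided by the count in vehicle wells. Counts were taken on 4× images of lung cancer cell lines in 1536-well plates, 5 days after pin-tool dosing the day after seeding with one drug alone or a fixed anchor-drug dose plus five library-drug doses (not always all listed) in √10 steps.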

[2] = test system: ABC-1
In short: as §1

[3] = test system: Calu-6
In short: as §1

[4] = test system: EBC-1
In short: as §1

[5] = test system: HOP-62
In short: as §1

[6] = test system: IA-LM
In short: as §1

[7] = test system: NCI-H1299
In short: as §1

[8] = test system: NCI-H1355
In short: as §1

[9] = test system: NCI-H1623
In short: as §1

[10] = test system: NCI-H1703
In short: as §1

[11] = test system: NCI-H2009
In short: as §1

[12] = test system: NCI-H23
In short: as §1

[13] = test system: NCI-H322M
In short: as §1

[14] = test system: UMC-11
In short: as §1

[15] = test system: NCI-H1648
In short: as §1

COCC1(CO)C(=O)C2CCN1CC2 (stereo not drawn) [PRIMA-1MET] + COc1cc2c(Oc3ccc(NC(=O)C4(C(=O)Nc5ccc(F)cc5)CC4)cc3F)ccnc2cc1OCCCN1CCOCC1 [Foretinib] (partner 0.25 µM)
relative viability ([1]; first compound 0.2 µM): 1.02
relative viability ([1]; first compound 0.6325 µM): 0.834
relative viability ([1]; first compound 2 µM): 1.07
relative viability ([1]; first compound 6.325 µM): 0.807
relative viability ([1]; first compound 20 µM): 0.894
relative viability ([2]; first compound 0.2 µM): 1.19
relative viability ([2]; first compound 0.6325 µM): 0.937
relative viability ([2]; first compound 2 µM): 1.25
relative viability ([2]; first compound 6.325 µM): 1.03
relative viability ([2]; first compound 20 µM): 0.505
relative viability ([3]; first compound 0.2 µM): 0.918
relative viability ([3]; first compound 0.6325 µM): 0.649
relative viability ([3]; first compound 2 µM): 0.899
relative viability ([3]; first compound 6.325 µM): 0.904
relative viability ([3]; first compound 20 µM): 0.335
relative viability ([4]; first compound 0.2 µM): 0.101
relative viability ([4]; first compound 0.6325 µM): 0.0986
relative viability ([4]; first compound 2 µM): 0.105
relative viability ([4]; first compound 6.325 µM): 0.107
relative viability ([4]; first compound 20 µM): 0.122
relative viability ([5]; first compound 0.2 µM): 1.18
relative viability ([5]; first compound 0.6325 µM): 1.07
relative viability ([5]; first compound 2 µM): 0.931
relative viability ([5]; first compound 6.325 µM): 1.1
relative viability ([5]; first compound 20 µM): 0.799
relative viability ([6]; first compound 0.2 µM): 1.07
relative viability ([6]; first compound 0.6325 µM): 1.12
relative viability ([6]; first compound 2 µM): 1.35
relative viability ([6]; first compound 6.325 µM): 1.06
relative viability ([6]; first compound 20 µM): 1.07
relative viability ([7]; first compound 0.2 µM): 1.13
relative viability ([7]; first compound 0.6325 µM): 1.12
relative viability ([7]; first compound 2 µM): 1.19
relative viability ([7]; first compound 6.325 µM): 1.12
relative viability ([7]; first compound 20 µM): 1.02
relative viability ([8]; first compound 0.2 µM): 1.02
relative viability ([8]; first compound 0.6325 µM): 0.846
relative viability ([8]; first compound 2 µM): 1.01
relative viability ([8]; first compound 6.325 µM): 1.01
relative viability ([8]; first compound 20 µM): 0.956
relative viability ([9]; first compound 0.2 µM): 0.789
relative viability ([9]; first compound 0.6325 µM): 0.819
relative viability ([9]; first compound 2 µM): 0.744
relative viability ([9]; first compound 6.325 µM): 0.905
relative viability ([9]; first compound 20 µM): 0.701
relative viability ([10]; first compound 0.2 µM): 0.512
relative viability ([10]; first compound 0.6325 µM): 0.368
relative viability ([10]; first compound 2 µM): 0.353
relative viability ([10]; first compound 6.325 µM): 0.388
relative viability ([10]; first compound 20 µM): 0.0682
relative viability ([11]; first compound 0.2 µM): 1.33
relative viability ([11]; first compound 0.6325 µM): 1.17
relative viability ([11]; first compound 2 µM): 1.22
relative viability ([11]; first compound 6.325 µM): 1.22
relative viability ([11]; first compound 20 µM): 0.52
relative viability ([12]; first compound 0.2 µM): 1.09
relative viability ([12]; first compound 0.6325 µM): 1
relative viability ([12]; first compound 2 µM): 0.861
relative viability ([12]; first compound 6.325 µM): 0.966
relative viability ([12]; first compound 20 µM): 0.257
relative viability ([13]; first compound 0.2 µM): 1.14
relative viability ([13]; first compound 0.6325 µM): 0.911
relative viability ([13]; first compound 6.325 µM): 1.18
relative viability ([13]; first compound 20 µM): 0.931
relative viability ([14]; first compound 0.2 µM): 1.15
relative viability ([14]; first compound 0.6325 µM): 0.916
relative viability ([14]; first compound 2 µM): 0.963
relative viability ([14]; first compound 6.325 µM): 0.979
relative viability ([14]; first compound 20 µM): 1.02

COCC1(CO)C(=O)C2CCN1CC2 (stereo not drawn) [PRIMA-1MET] + COc1cccc2cc(-c3nc([C@H]4CC[C@H](C(=O)O)CC4)n4ncnc(N)c34)[nH]c12 [OSI-027] (partner 0.5 µM)
relative viability ([2]; first compound 0.2 µM): 0.37
relative viability ([2]; first compound 0.6325 µM): 0.401
relative viability ([2]; first compound 2 µM): 0.349
relative viability ([2]; first compound 6.325 µM): 0.48
relative viability ([2]; first compound 20 µM): 0.0792
relative viability ([5]; first compound 0.2 µM): 0.965
relative viability ([5]; first compound 0.6325 µM): 0.808
relative viability ([5]; first compound 2 µM): 0.757
relative viability ([5]; first compound 6.325 µM): 0.88
relative viability ([5]; first compound 20 µM): 0.754
relative viability ([8]; first compound 0.2 µM): 0.361
relative viability ([8]; first compound 0.6325 µM): 0.353
relative viability ([8]; first compound 2 µM): 0.316
relative viability ([8]; first compound 6.325 µM): 0.389
relative viability ([8]; first compound 20 µM): 0.406
relative viability ([9]; first compound 0.2 µM): 0.374
relative viability ([9]; first compound 0.6325 µM): 0.405
relative viability ([9]; first compound 2 µM): 0.445
relative viability ([9]; first compound 6.325 µM): 0.42
relative viability ([9]; first compound 20 µM): 0.303
relative viability ([15]; first compound 0.2 µM): 0.24
relative viability ([15]; first compound 0.6325 µM): 0.252
relative viability ([15]; first compound 2 µM): 0.283
relative viability ([15]; first compound 6.325 µM): 0.256
relative viability ([15]; first compound 20 µM): 0.249
relative viability ([11]; first compound 0.2 µM): 0.699
relative viability ([11]; first compound 0.6325 µM): 0.578
relative viability ([11]; first compound 2 µM): 0.643
relative viability ([11]; first compound 6.325 µM): 0.67
relative viability ([11]; first compound 20 µM): 0.0063
relative viability ([12]; first compound 0.2 µM): 0.456
relative viability ([12]; first compound 0.6325 µM): 0.509
relative viability ([12]; first compound 2 µM): 0.511
relative viability ([12]; first compound 6.325 µM): 0.568
relative viability ([12]; first compound 20 µM): 0.476
relative viability ([13]; first compound 0.2 µM): 0.494
relative viability ([13]; first compound 0.6325 µM): 0.289
relative viability ([13]; first compound 6.325 µM): 0.57
relative viability ([13]; first compound 20 µM): 0.13
relative viability ([14]; first compound 0.2 µM): 0.478
relative viability ([14]; first compound 0.6325 µM): 0.46
relative viability ([14]; first compound 2 µM): 0.432
relative viability ([14]; first compound 6.325 µM): 0.485
relative viability ([14]; first compound 20 µM): 0.444
